Consider one compound from patent publication US8952249B2, “1,4-fullerene addends in photovoltaic cells” (The Regents of the University of California, priority 2010, dated 2015).

Details of data set [1]: unit not given here. The note with it: PCBM analogues described by Hummelen et al.; cited from earlier work.
Data set [2] can be described thus: Cyclic voltammetry: reduction potentials and energy of the LUMO. The note with it: 1,2-dichlorobenzene, Bu4NClO4 (0.1 M), Pt wire counter electrode, 50 mV/s scan rate. It is filed as physicochemical. The text has this: The synthesis of fullerenol was previously reported.^6 From fullerenol, we herein report on the syntheses of a set of derivatives by arylation as described in FIG. 1. In a typical reaction, fullerenol is reacted with a specific substrate (a substituted aryl) used as the solvent in the presence of p-toluene sulfonic acid (TsOH) as the catalyst. Following this procedure we synthesized: PEHOB (FIG. 2) (C60 functionalized with a phenyl group on C1 and an ethylhexyloxybenzene group on C4), PCVM (FIG. 3) (Phenyl on C1 and phenylvaleric acid methyl ester on C4), PTHOB (FIG. 4) (phenyl on C1 and trihexyloxyphenyl on C4), PFOH (FIG. 5) (phenyl on C1 and hydroxyl on C4); PFTFP (FIG. 6) (p-trifluorophenyl on C1 and pentafluorophenyl on C4) and ANP (FIG. 7) (phenyl on C1 and aniline on C4). 1H NMR, 13C NMR, 19F NMR and field desorption (FD) mass spectroscopy confirmed the identity of the products. The adducts were further characterized by cyclic voltammetry (CV) and UV-vis spectroscopy. […] From the first reduction potential calculated by CV we determined the energy of the LUMO. An estimated value of the HOMO was inferred from the onset of the UV-vis spectra. In order to modify the property of the derivatives, we appended (i) long alkyl chains to increase solubility and (ii) electron withdrawing or (iii) electron donating groups to stabilize or destabilize the energy of the LUMO respectively. Due to the spherical shape of C60, heteroatoms or functional groups appended on the fullerene can only affect the energy of the molecular orbitals by induction. Therefore, an electron donating group directly bound to C60 such a methoxy will […] the energy of the LUMO because of the higher electronegativity of the oxygen. […] These values are in agreement with previous reports.^8, 9 Table 1 (see below) summarizes the electrochemical data calculated for all the derivatives. […]

On to `COC(=O)CCCC1(c2ccccc2)C23c4c5c6c7c8c9c(c%10c%11c2c2c%12c4c4c%13c5c5c7c7c8c8c%14c9c%10c9c%10c%11c2c2c%11c%12c4c4c%12c%13c5c5c7c7c8c8c%14c9c9c%10c2c2c%11c4c4c%12c5c7c5c8c9c2c45)C613` (stereo not shown) [PCBM, [6,6]-phenyl-C61-butyric acid methyl ester], for which the redox potential in data set [1] is on record as −1.08. In data set [2], the E1red is −1.056 V vs Fc/Fc+, the E2red is reported as −1.471 V vs Fc/Fc+ and the E3red is −1.957 V vs Fc/Fc+.
